The assay has as its system cancer patients subjected to IMRT irradiation (bone marrow damage by radiation). The note with it: mean±SE, n=16, before treatment taken as 1. On the procedure: These patients were subjected to IMRT irradiation integrated with a computed tomograph (CT). Irradiation was in principle performed on a schedule of once a day, five times per week, and this schedule was repeated. Radiation was applied at 1 to 5 locations for 5 to 20 minutes once, and the number of times irradiation was performed was 5 to 20.
These patients were housed in a hyperbaric capsule (APF 2, 700×1900 mm; oxygen concentration: 28% by volume; Air Press Co., Ltd.) at 1.35 atm for 30 minutes after each irradiation with radiation to alleviate the adverse effects.
In addition, 16 patients (8 males and 8 females) who had visited from April 2016 until November 2016 were included in the hydrogen group. These patients were housed in the capsule similar to the above-mentioned capsule except that a hydrogen gas inhaler (MHG-44280, MiZ Company Limited), which generates approximately 6.5% by volume of hydrogen gas (4 L/min) by electrolysis of water, was connected in series with and upstream the air intake of the pressurizing device for the hyperbaric capsule provided outside the capsule, so as to feed high-pressure air containing hydrogen gas into the capsule, while the patients were allowed to inhale, via the nasal cannula, for 30 minutes, 4% by volume to 6% by volume of hydrogen gas (4 L/min) carried through a Y-shaped tube by which the air outlets of two hydrogen gas inhalers (MHG-2070 and MHG-2140, MiZ Company Limited) provided in the capsule were connected in parallel. The hydrogen gas concentration in the ceiling portion of the capsule was approximately 0.2% by volume.
Blood samples were taken periodically from both groups of patients before, during and after radiation treatment. The analysis items of blood were the white blood cell count (WBC), red blood cell count (RBC), hemoglobin level (Hb), hematocrit level (Ht) and platelet count (PLT), and these were used as indicators for hematopoietic function.

The mark [1] stands for this setting: 4-6% by volume hydrogen gas inhaled 30 min in hyperbaric capsule at 1.35 atm, no significant difference vs control.

Structures are written as SMILES.

With `[HH]` [H2, hydrogen gas], the “WBC ratio: relative value of the white blood cell count (WBC) immediately after radiation treatment to the WBC before radiation treatment” value (4-6% by volume hydrogen gas inhaled 30 min in hyperbaric capsule at 1.35 atm after each irradiation, p<0.01 vs control) amounted to 0.612±0.088. Besides, under setting [1], the “Hb ratio: relative value of the hemoglobin level (Hb) immediately after radiation treatment to the Hb before radiation treatment” value is reported as 0.966±0.029, the “Ht ratio: relative value of the hematocrit level (Ht) immediately after radiation treatment to the Ht before radiation treatment” value stood at 0.953±0.027 and the “RBC ratio: relative value of the red blood cell count (RBC) immediately after radiation treatment to the RBC before radiation treatment” value is given as 0.985±0.027. Further, the “PLT ratio: relative value of the platelet count (PLT) immediately after radiation treatment to the PLT before radiation treatment” value (4-6% by volume hydrogen gas inhaled 30 min in hyperbaric capsule at 1.35 atm, p<0.05 vs control) amounted to 0.752±0.130.

Values taken from patent US11529367B2, “Radiation damage protective agent” (MiZ Company Limited, priority 2016, dated 2022).
